Measured values published in patent US20200392126A1, “ISOXAZOLYL COMPOUNDS AS RECEPTOR MODULATING COMPOUNDS AND METHODS AND USES THEREOF” (BIONOMICS LIMITED, priority 2017, published 2020).
pIC50: −log10 of the molar value. Read-outs that look alike come from different tables or passages of the source.

Molecular target: T1, hnAChR α7/ric3 (Homo sapiens, UniProt P36544)
T1 construct: expressed in transfected cells
Test: IonFlux HT electrophysiological recording of hnAChR α7/ric3 currents, inhibition of ACh (200 μM, EC80) peak current
Assay type: cell-based
Procedure: All wells included a final DMSO concentration of 0.33% including all control wells.
The solutions for recording hnAChR α7/ric3 currents were:
All recordings were obtained from a holding potential of −60 mV.
Compounds were assayed using bump-in protocol. The compound addition sequence that was used for all additions was the same for all assays. One addition of the EC80 concentration of ACh (200 μM) was added to establish baseline response. The test compounds were tested on cells in increasing concentrations of 0.12, 0.37, 1.1, 3.3, 10 μM±200 μM ACh for all compounds. Each compound was applied for one minutes followed by the addition of 200 μM ACh for 1 second.
Peak inward currents in response to the ACh additions in the presence of increasing concentrations of compound were measured.
Potentiation of ACh Response=(I^Compound^+^ACh/I^ACh)
All data were first exported to an Excel compatible data file and then analyzed using Graph Pad Prism software.

[1] = hnAChR α7/ric3, 0.12-10 μM compound, 1 min preincubation, then 200 μM ACh for 1 s, holding potential −60 mV, read-out: IC50

T1 sequence (P36544 23-502): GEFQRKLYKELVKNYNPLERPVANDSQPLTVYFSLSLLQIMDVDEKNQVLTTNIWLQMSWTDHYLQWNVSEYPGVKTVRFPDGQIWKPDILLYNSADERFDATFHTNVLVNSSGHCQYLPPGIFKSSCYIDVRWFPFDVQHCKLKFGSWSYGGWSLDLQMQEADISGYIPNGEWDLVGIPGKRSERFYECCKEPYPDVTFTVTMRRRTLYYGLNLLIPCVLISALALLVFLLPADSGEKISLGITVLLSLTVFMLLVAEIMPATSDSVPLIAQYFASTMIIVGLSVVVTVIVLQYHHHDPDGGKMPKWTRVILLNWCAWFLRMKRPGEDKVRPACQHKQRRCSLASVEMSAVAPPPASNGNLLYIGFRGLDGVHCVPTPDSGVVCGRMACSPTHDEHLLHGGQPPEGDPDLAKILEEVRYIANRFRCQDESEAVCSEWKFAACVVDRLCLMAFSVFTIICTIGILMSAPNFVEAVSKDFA

| Structure (SMILES) | pIC50 [1] | pIC50 |
| --- | --- | --- |
| Cc1nocc1S(=O)(=O)NC1(c2ccccc2)CCCCC1 [Compound 1, 3-Methyl-N-(1-phenylcyclohexyl)isoxazole-4-sulfonamide] |  | 5.24 |
| Cc1nocc1S(=O)(=O)NCCc1ccccc1 [Compound 2, 3-Methyl-N-phenethylisoxazole-4-sulfonamide] | 5.77 |  |
| Cc1nocc1S(=O)(=O)NCCc1ccc(F)cc1 [Compound 3, N-(4-Fluorophenethyl)-3-methylisoxazole-4-sulfonamide] | 5.66 |  |
| Cc1nocc1S(=O)(=O)N1CCN(c2ccc(F)cc2)CC1 [Compound 8, 4-(4-(4-Fluorophenyl)piperazin-1-ylsulfonyl)-3-methylisoxazole] |  | 5.66 |

The next lines start with results.

| pIC50 [1] | Structure (SMILES) | pIC50 |
| --- | --- | --- |
| 6.40 | Cc1nocc1S(=O)(=O)N1CCC(c2ccc(F)cc2)CC1 [Compound 7] |  |
| 5.19 | Cc1nocc1S(=O)(=O)N1CCN(c2ccccn2)CC1 [Compound 10, 3-Methyl-4-(4-(pyridin-2-yl)piperazin-1-ylsulfonyl)isoxazole] |  |
| 5.54 | Cc1nocc1S(=O)(=O)N1CCc2ccccc2CC1 [Compound 11, 3-Methyl-4-((1,2,4,5-tetrahydro-3H-benzo[d]azepin-3-yl)sulfonyl)isoxazole] |  |
